Measurements published in patent publication US11702404B2, “GLP-1R modulating compounds” (priority 2019, dated 2023).

Biological target: GLP-1R (Homo sapiens, UniProt P43220)
Assay: GLP-1R activation: cAMP increase in CHO cells stably expressing GLP-1R
Format: cell-based
Details: cAMP increase, CHO cells stably expressing GLP-1R, 10 point dose response, 30 minutes incubation; read-out: EC50

Chain of GLP-1R (P43220 24-463): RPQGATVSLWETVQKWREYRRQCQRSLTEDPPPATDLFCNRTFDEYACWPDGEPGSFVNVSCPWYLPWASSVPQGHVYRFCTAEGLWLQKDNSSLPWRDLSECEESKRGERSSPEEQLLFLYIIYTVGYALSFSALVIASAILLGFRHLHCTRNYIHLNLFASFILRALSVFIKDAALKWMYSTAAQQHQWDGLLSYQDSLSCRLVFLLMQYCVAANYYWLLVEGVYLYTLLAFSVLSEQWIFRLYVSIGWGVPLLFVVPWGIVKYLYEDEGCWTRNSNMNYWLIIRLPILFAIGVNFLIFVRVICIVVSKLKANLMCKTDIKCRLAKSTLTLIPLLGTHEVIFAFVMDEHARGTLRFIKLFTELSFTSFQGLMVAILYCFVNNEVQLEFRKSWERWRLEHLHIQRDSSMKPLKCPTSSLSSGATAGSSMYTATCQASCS

SMILES | EC50 [nM]
N#Cc1cc(F)c(COc2cccc(-c3ccc(Cc4nc5ccc(C(=O)O)cc5n4C[C@@H]4CCO4)c(F)c3)n2)cc1F [Example 668] | 0.56
O=C(O)c1ccc2nc(Cc3cc(F)c(-c4cccc(OCc5ccc(C(F)F)cc5F)n4)cc3F)n(CC34CC(CO3)C4)c2c1 [Example 670] | 0.51
O=C(O)c1ccc2nc(Cc3cc(F)c(-c4ccnc(OCc5ccc(C(F)F)cc5F)n4)cc3F)n(CC34CC(CO3)C4)c2c1 [Example 671] | 1.76
COCCn1c(Cc2cc(F)c(-c3ccnc(OCc4ccc(C(F)F)cc4F)n3)cc2F)nc2c(F)cc(C(=O)O)cc21 [Example 672] | 0.58
COCCn1c(Cc2cc(F)c(-c3ccc(F)c(OCc4ccc(C#N)cc4F)n3)cc2C)nc2ccc(C(=O)O)cc21 [Example 673] | 3.54
COCCn1c(Cc2cc(F)c(-c3cccc(OCc4ccc(C#N)cc4F)n3)cc2C)nc2ccc(C(=O)O)cc21 [Example 674] | 2.73
N#Cc1cc(F)c(COc2nc(-c3ccc(Cc4nc5ccc(C(=O)O)cc5n4C[C@@H]4CCO4)cc3F)ccc2F)cc1F [Example 676] | 0.52
CCn1cnnc1Cn1c(Cc2cc(F)c(-c3cccc(OCc4ccc(C(F)F)cc4F)n3)cc2F)nc2ccc(C(=O)O)cc21 [Example 678] | 0.88
COCCn1c(Cc2ccc(-c3cccc(OCc4ccc(C#N)cc4F)n3)c(F)c2)nc2c(F)cc(C(=O)O)cc21 [Example 681] | 5.64
N#Cc1ccc(COc2cccc(-c3cnc(Cc4nc5ccc(C(=O)O)cc5n4C[C@@H]4CCO4)c(F)c3)n2)c(F)c1 [Example 682] | 0.59
N#Cc1ccc(COc2cccc(-c3cc(=O)n(Cc4nc5ccc(C(=O)O)cc5n4CC45CC(CO4)C5)cc3F)n2)c(F)c1 [Example 683] | 2.41
N#Cc1ccc(COc2nccc(-c3cc(F)c(Cc4nc5ccc(C(=O)NS(=O)(=O)C6CC6)cc5n4C[C@@H]4CCO4)cc3F)n2)c(F)c1 [Example 685] | 1.05
Cc1cc(-c2ccc(F)c(OCc3ccc(C#N)cc3F)n2)ccc1Cc1nc2ccc(C(=O)O)cc2n1C[C@@H]1CCO1 [Example 686] | 0.55
COC1(Cn2c(Cc3cc(F)c(-c4cccc(OCc5ccc(C#N)cc5F)n4)cc3F)nc3ccc(C(=O)O)cc32)CN(C(C)=O)C1 [Example 687] | 181
COC1(Cn2c(Cc3cc(F)c(-c4cccc(OCc5ccc(C#N)cc5F)n4)cc3F)nc3ccc(C(=O)O)cc32)CN(S(C)(=O)=O)C1 [Example 688] | 1220

Results, then the compound that gave them:

EC50 [nM] | SMILES
0.51 | N#Cc1ccc(COc2nc(-c3ccc(Cc4nc5c(F)cc(C(=O)O)cc5n4C[C@@H]4CCO4)cc3F)ncc2F)c(F)c1 [Example 666]
0.1 | O=C(O)c1ccc2nc(Cc3ccc(-c4cccc(OCc5ccc(C(F)(F)F)cc5F)n4)cc3F)n(C[C@@H]3CCO3)c2c1 [Example 667]
0.28 | O=C(O)c1cc(F)c2nc(Cc3cc(F)c(-c4cccc(OCc5ccc(C(F)F)cc5F)n4)cc3F)n(CC34CC(CO3)C4)c2c1 [Example 669]
0.16 | N#Cc1ccc(COc2nc(-c3ccc(Cc4nc5c(F)cc(C(=O)O)cc5n4C[C@@H]4CCO4)cc3)ccc2F)c(F)c1 [Example 675]
0.06 | N#Cc1cc(F)c(COc2nccc(-c3cc(F)c(Cc4nc5c(F)cc(C(=O)O)cc5n4C[C@@H]4CCO4)cc3F)n2)cc1F [Example 677]
0.06 | O=C(O)c1ccc2nc(Cc3c(F)cc(-c4cccc(OCc5ccc(C(F)F)cc5F)n4)cc3F)n(C[C@@H]3CCO3)c2c1 [Example 679]
0.11 | N#Cc1cc(F)c(COc2cccc(-c3cc(F)c(Cc4nc5ccc(C(=O)O)cc5n4C[C@@H]4CCO4)c(F)c3)n2)cc1F [Example 680]
0.29 | COCCn1c(Cn2cc(F)c(-c3cccc(OCc4ccc(C#N)cc4F)n3)cc2=O)nc2c(F)cc(C(=O)O)cc21 [Example 684]

Test system: not listed separately
Assay: Microsomal stability, human liver microsomes (predicted hepatic clearance)
Details: predicted from in vitro microsomal stability data

SMILES | Predicted Hepatic Clearance (Pred. Cl.) [mL/min/kg]
N#Cc1cc(F)c(COc2cccc(-c3ccc(Cc4nc5ccc(C(=O)O)cc5n4C[C@@H]4CCO4)c(F)c3)n2)cc1F [Example 668] | 3.67
O=C(O)c1ccc2nc(Cc3cc(F)c(-c4cccc(OCc5ccc(C(F)F)cc5F)n4)cc3F)n(CC34CC(CO3)C4)c2c1 [Example 670] | 3.17
O=C(O)c1ccc2nc(Cc3cc(F)c(-c4ccnc(OCc5ccc(C(F)F)cc5F)n4)cc3F)n(CC34CC(CO3)C4)c2c1 [Example 671] | 1.83
COCCn1c(Cc2cc(F)c(-c3ccnc(OCc4ccc(C(F)F)cc4F)n3)cc2F)nc2c(F)cc(C(=O)O)cc21 [Example 672] | 1.83
COCCn1c(Cc2cc(F)c(-c3ccc(F)c(OCc4ccc(C#N)cc4F)n3)cc2C)nc2ccc(C(=O)O)cc21 [Example 673] | 4.5
COCCn1c(Cc2cc(F)c(-c3cccc(OCc4ccc(C#N)cc4F)n3)cc2C)nc2ccc(C(=O)O)cc21 [Example 674] | 6
N#Cc1cc(F)c(COc2nc(-c3ccc(Cc4nc5ccc(C(=O)O)cc5n4C[C@@H]4CCO4)cc3F)ccc2F)cc1F [Example 676] | 2.33
CCn1cnnc1Cn1c(Cc2cc(F)c(-c3cccc(OCc4ccc(C(F)F)cc4F)n3)cc2F)nc2ccc(C(=O)O)cc21 [Example 678] | 4.17
COCCn1c(Cc2ccc(-c3cccc(OCc4ccc(C#N)cc4F)n3)c(F)c2)nc2c(F)cc(C(=O)O)cc21 [Example 681] | 3.33
N#Cc1ccc(COc2cccc(-c3cnc(Cc4nc5ccc(C(=O)O)cc5n4C[C@@H]4CCO4)c(F)c3)n2)c(F)c1 [Example 682] | 2.5
N#Cc1ccc(COc2cccc(-c3cc(=O)n(Cc4nc5ccc(C(=O)O)cc5n4CC45CC(CO4)C5)cc3F)n2)c(F)c1 [Example 683] | 6.5
N#Cc1ccc(COc2nccc(-c3cc(F)c(Cc4nc5ccc(C(=O)NS(=O)(=O)C6CC6)cc5n4C[C@@H]4CCO4)cc3F)n2)c(F)c1 [Example 685] | 2.33
Cc1cc(-c2ccc(F)c(OCc3ccc(C#N)cc3F)n2)ccc1Cc1nc2ccc(C(=O)O)cc2n1C[C@@H]1CCO1 [Example 686] | 4
COC1(Cn2c(Cc3cc(F)c(-c4cccc(OCc5ccc(C#N)cc5F)n4)cc3F)nc3ccc(C(=O)O)cc32)CN(C(C)=O)C1 [Example 687] | 8.67
COC1(Cn2c(Cc3cc(F)c(-c4cccc(OCc5ccc(C#N)cc5F)n4)cc3F)nc3ccc(C(=O)O)cc32)CN(S(C)(=O)=O)C1 [Example 688] | 10.3

Other lines, results leading:

Predicted Hepatic Clearance (Pred. Cl.) [mL/min/kg] | SMILES
3.33 | N#Cc1ccc(COc2nc(-c3ccc(Cc4nc5c(F)cc(C(=O)O)cc5n4C[C@@H]4CCO4)cc3F)ncc2F)c(F)c1 [Example 666]
6 | O=C(O)c1ccc2nc(Cc3ccc(-c4cccc(OCc5ccc(C(F)(F)F)cc5F)n4)cc3F)n(C[C@@H]3CCO3)c2c1 [Example 667]
1.83 | O=C(O)c1cc(F)c2nc(Cc3cc(F)c(-c4cccc(OCc5ccc(C(F)F)cc5F)n4)cc3F)n(CC34CC(CO3)C4)c2c1 [Example 669]
2.83 | N#Cc1ccc(COc2nc(-c3ccc(Cc4nc5c(F)cc(C(=O)O)cc5n4C[C@@H]4CCO4)cc3)ccc2F)c(F)c1 [Example 675]
1.83 | N#Cc1cc(F)c(COc2nccc(-c3cc(F)c(Cc4nc5c(F)cc(C(=O)O)cc5n4C[C@@H]4CCO4)cc3F)n2)cc1F [Example 677]
5 | O=C(O)c1ccc2nc(Cc3c(F)cc(-c4cccc(OCc5ccc(C(F)F)cc5F)n4)cc3F)n(C[C@@H]3CCO3)c2c1 [Example 679]
5.5 | N#Cc1cc(F)c(COc2cccc(-c3cc(F)c(Cc4nc5ccc(C(=O)O)cc5n4C[C@@H]4CCO4)c(F)c3)n2)cc1F [Example 680]
3 | COCCn1c(Cn2cc(F)c(-c3cccc(OCc4ccc(C#N)cc4F)n3)cc2=O)nc2c(F)cc(C(=O)O)cc21 [Example 684]
